According to article PMC10985226, “A tangible method to assess native ferroptosis suppressor activity” (Cell Reports Methods, 2024):

Target: T1, Glutathione peroxidase 4 (Strep-hGPX4) (Homo sapiens, UniProt P36969)
T1 construct: gene GPX4
T1 sequence (P36969 28-197): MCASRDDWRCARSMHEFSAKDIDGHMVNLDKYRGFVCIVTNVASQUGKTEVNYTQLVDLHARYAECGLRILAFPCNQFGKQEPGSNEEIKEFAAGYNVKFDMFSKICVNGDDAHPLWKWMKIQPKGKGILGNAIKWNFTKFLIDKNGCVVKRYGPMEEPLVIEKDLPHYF
Assay: substrate turnover by isolated hGPX4, NADPH-coupled assay
Type: biochemical

| SMILES | substrate turnover by isolated hGPX4, NADPH-coupled assay |
| --- | --- |
| CC(C)(OO)c1ccccc1 [cumeneOOH, cumene hydroperoxide] | All hydroperoxides except for H2O2 afforded the GPX4-dependent NADPH consumption in the assay system |
| CC(C)(C)OO [tBuOOH, tert-butyl hydroperoxide] | All hydroperoxides except for H2O2 afforded the GPX4-dependent NADPH consumption in the assay system |
